Values joined by “and” are separate entries in the source; they are usually repeats but may differ in a detail not shown here. Equal entries are not always repeated. Where two headings read alike, the source gives them in different places.
Assays:
Neisseria gonorrhoeae = assay: MIC, microbroth dilution, G77L medium; format: cell-based
[1] = Liver microsome stability, murine; format: in vitro ADME, mouse
Outline: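 Compounds incubated with liver microsomes plus NADPH over 30 min; parent remaining quantified by reverse-phase LC/MS. Half-life from linear regression over several time points.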

[2] = Aqueous solubility (nephelometric); format: physicochemical; settings: aqueous solution (buffer not named); single replicates
Escherichia coli = assay: microbe, parasite or virus in culture; format: cell-based
Pseudomonas aeruginosa = assay: MIC, microbroth dilution; format: cell-based

O=C(Nc1nnc(-c2ccc(F)cc2)o1)N1CCc2ccccc2C1 [MBX-4132]
0.132 µg/mL: MIC (Neisseria gonorrhoeae; Neisseria gonorrhoeae, strain WHO G, replicates 1-3) | MIC (Neisseria gonorrhoeae; Neisseria gonorrhoeae, strain WHO M, replicates 1-3) | MIC (Neisseria gonorrhoeae; Neisseria gonorrhoeae, strain WHO O, replicates 1-3) | MIC (Neisseria gonorrhoeae; Neisseria gonorrhoeae, strain WHO U, replicates 1-3) | MIC (Neisseria gonorrhoeae; Neisseria gonorrhoeae, strain WHO W, replicates 1-3) | MIC (Neisseria gonorrhoeae; Neisseria gonorrhoeae, strain WHO X, replicates 1-3) | MIC (Neisseria gonorrhoeae; strain WHO G, replicates 1-3) | MIC (Neisseria gonorrhoeae; strain WHO M, replicates 1-3) | MIC (Neisseria gonorrhoeae; strain WHO O, replicates 1-3) | MIC (Neisseria gonorrhoeae; strain WHO U, replicates 1-3) | MIC (Neisseria gonorrhoeae; strain WHO W, replicates 1-3)
0.03 µg/mL: MIC (Neisseria gonorrhoeae; Neisseria gonorrhoeae, strain MMX 7005, by Micromyx)
0.07 µg/mL: MIC (Neisseria gonorrhoeae; Neisseria gonorrhoeae, strain MMX 6757, by Micromyx)
2.8 µg/mL: MIC (Escherichia coli; Escherichia coli, strain KLE701, KLE700 ΔtolC::tet)
0.169 µg/mL: MIC (Neisseria gonorrhoeae; strain CDC-0166, replicates 1-3) | MIC (Neisseria gonorrhoeae; strain CDC-0169, replicates 1-3) | MIC (Neisseria gonorrhoeae; strain CDC-0170, replicates 1-3) | MIC (Neisseria gonorrhoeae; strain CDC-0171, replicates 1-3) | MIC (Neisseria gonorrhoeae; strain CDC-0172, replicates 1-3) | MIC (Neisseria gonorrhoeae; strain CDC-0173, replicates 1-3) | MIC (Neisseria gonorrhoeae; strain CDC-0174, replicates 1-3) | MIC (Neisseria gonorrhoeae; strain CDC-0177, replicates 1-3) | MIC (Neisseria gonorrhoeae; strain CDC-0180, replicates 1-3) | MIC (Neisseria gonorrhoeae; strain CDC-0181, replicates 1-3) | MIC (Neisseria gonorrhoeae; strain CDC-0182, replicates 1-3) | MIC (Neisseria gonorrhoeae; strain CDC-0184, replicates 1-3) | MIC (Neisseria gonorrhoeae; strain CDC-0186, replicates 1-3) | MIC (Neisseria gonorrhoeae; strain CDC-0188, replicates 1-3) | MIC (Neisseria gonorrhoeae; strain CDC-0190, replicates 1-3) | MIC (Neisseria gonorrhoeae; strain HO41, replicates 1-3)
≥ 34 µg/mL: MIC (Escherichia coli; Escherichia coli, Escherichia coli KLE700, replicates, read-out: MIC) | MIC (Escherichia coli; Escherichia coli, strain KLE700, read-out: MIC) | MIC (Pseudomonas aeruginosa; Pseudomonas aeruginosa, ATCC27853, Pseudomonas aeruginosa ATCC 27853, replicates, read-out: MIC) | MIC (Pseudomonas aeruginosa; Pseudomonas aeruginosa, ATCC27853, strain ATCC 27853, read-out: MIC)
2.11 µg/ml (4×) and 4.23 µg/ml (2×): MIC (Escherichia coli; Escherichia coli KLE701 (ΔtolC), replicates)
0.14 µg/mL: MIC (Neisseria gonorrhoeae; Neisseria gonorrhoeae, strain MMX 6746, CIP, by Micromyx) | MIC (Neisseria gonorrhoeae; Neisseria gonorrhoeae, strain MMX 6753, by Micromyx) | MIC (Neisseria gonorrhoeae; Neisseria gonorrhoeae, strain MMX 6767, by Micromyx) | MIC (Neisseria gonorrhoeae; Neisseria gonorrhoeae, strain MMX 6771, TET, by Micromyx) | MIC (Neisseria gonorrhoeae; Neisseria gonorrhoeae, strain MMX 6793, CIP, by Micromyx) | MIC (Neisseria gonorrhoeae; Neisseria gonorrhoeae, strain MMX 6797, CIP, TET, by Micromyx) | MIC (Neisseria gonorrhoeae; Neisseria gonorrhoeae, strain MMX 6819, CIP, by Micromyx) | MIC (Neisseria gonorrhoeae; Neisseria gonorrhoeae, strain MMX 6879, by Micromyx) | MIC (Neisseria gonorrhoeae; Neisseria gonorrhoeae, strain MMX 6989, by Micromyx) | MIC (Neisseria gonorrhoeae; Neisseria gonorrhoeae, strain MMX 6990, CIP, by Micromyx) | MIC (Neisseria gonorrhoeae; Neisseria gonorrhoeae, strain MMX 6992, by Micromyx)
0.338 µg/mL: MIC (Neisseria gonorrhoeae; strain CDC-0176, replicates 1-3) | MIC (Neisseria gonorrhoeae; strain CDC-0178, replicates 1-3) | MIC (Neisseria gonorrhoeae; strain CDC-0183, replicates 1-3) | MIC (Neisseria gonorrhoeae; strain CDC-0187, replicates 1-3)
0.132 µg/mL and 0.264 µg/mL: MIC (Neisseria gonorrhoeae; strain WHO Y, replicates 1-3)
0.21 µg/mL: MIC (Neisseria gonorrhoeae; Neisseria gonorrhoeae, strain WHO X, CIP, PEN, TET) | MIC (Neisseria gonorrhoeae; Neisseria gonorrhoeae, strain WHO Y, CIP, PEN, TET)
2.11 µg/mL: MIC (Escherichia coli; Escherichia coli, E. coli KLE701 (ΔtolC::tet), source data, individual replicates)
0.085 µg/mL and 0.169 µg/mL: MIC (Neisseria gonorrhoeae; strain CDC-0189, replicates 1-3)
0.33 µg/mL: MIC (Neisseria gonorrhoeae; Neisseria gonorrhoeae, strain WHO P, PEN, TET)
0.085 µg/mL: MIC (Neisseria gonorrhoeae; strain CDC-0175, replicates 1-3) | MIC (Neisseria gonorrhoeae; strain CDC-0179, replicates 1-3)
0.677 µg/mL: MIC (Neisseria gonorrhoeae; strain CDC-0165, replicates 1-3)
0.264 µg/mL: MIC (Neisseria gonorrhoeae; Neisseria gonorrhoeae, strain WHO K, replicates 1-3) | MIC (Neisseria gonorrhoeae; Neisseria gonorrhoeae, strain WHO L, replicates 1-3) | MIC (Neisseria gonorrhoeae; Neisseria gonorrhoeae, strain WHO N, replicates 1-3) | MIC (Neisseria gonorrhoeae; Neisseria gonorrhoeae, strain WHO V, replicates 1-3) | MIC (Neisseria gonorrhoeae; Neisseria gonorrhoeae, strain WHO Y, replicates 1-3) | MIC (Neisseria gonorrhoeae; Neisseria gonorrhoeae, strain WHO Z, replicates 1-3) | MIC (Neisseria gonorrhoeae; strain WHO K, replicates 1-3) | MIC (Neisseria gonorrhoeae; strain WHO L, replicates 1-3) | MIC (Neisseria gonorrhoeae; strain WHO N, replicates 1-3) | MIC (Neisseria gonorrhoeae; strain WHO V, replicates 1-3) | MIC (Neisseria gonorrhoeae; strain WHO X, replicates 1-3) | MIC (Neisseria gonorrhoeae; strain WHO Z, replicates 1-3)
> 2 h: half-life ([1]; mouse, murine liver microsomes, read-out: MMS / Microsomal Stability (t1/2), murine)
0.06 µg/mL: MIC (Neisseria gonorrhoeae; Neisseria gonorrhoeae, strain WHO F)
≥34 µg/mL: MIC (Escherichia coli; Escherichia coli KLE700, replicates) | MIC (Pseudomonas aeruginosa; Pseudomonas aeruginosa ATCC 27853, replicates)
100 µM: Solubility [2]
0.066 µg/mL: MIC (Neisseria gonorrhoeae; Neisseria gonorrhoeae, strain WHO F, replicates 1-3) | MIC (Neisseria gonorrhoeae; strain WHO F, replicates 1-3)
>120 min: Microsomal stability (t½, min) Murine ([1]; Reported value, Eurofins)
0.27 µg/mL: MIC (Neisseria gonorrhoeae; Neisseria gonorrhoeae, strain MMX 6752, TET, by Micromyx) | MIC (Neisseria gonorrhoeae; Neisseria gonorrhoeae, strain MMX 6758, by Micromyx) | MIC (Neisseria gonorrhoeae; Neisseria gonorrhoeae, strain MMX 6762, by Micromyx) | MIC (Neisseria gonorrhoeae; Neisseria gonorrhoeae, strain MMX 6803, CIP, by Micromyx) | MIC (Neisseria gonorrhoeae; Neisseria gonorrhoeae, strain MMX 6812, CIP, by Micromyx) | MIC (Neisseria gonorrhoeae; Neisseria gonorrhoeae, strain MMX 6818, CIP, by Micromyx) | MIC (Neisseria gonorrhoeae; Neisseria gonorrhoeae, strain MMX 6996, by Micromyx) | MIC (Neisseria gonorrhoeae; Neisseria gonorrhoeae, strain MMX 7002, CIP, by Micromyx)
0.529 µg/ml and 0.264 µg/ml (2×): MIC (Neisseria gonorrhoeae; strain WHO P, replicates 1-3)
0.26 µg/mL: MIC (Neisseria gonorrhoeae; Neisseria gonorrhoeae, strain WHO K, CIP, PEN, TET) | MIC (Neisseria gonorrhoeae; Neisseria gonorrhoeae, strain WHO L, CIP, PEN, TET) | MIC (Neisseria gonorrhoeae; Neisseria gonorrhoeae, strain WHO N, CIP, PEN, TET) | MIC (Neisseria gonorrhoeae; Neisseria gonorrhoeae, strain WHO V, AZM, CIP, PEN, TET) | MIC (Neisseria gonorrhoeae; Neisseria gonorrhoeae, strain WHO Z, CIP, PEN, TET)
0.169 µg/mL and 0.338 µg/mL: MIC (Neisseria gonorrhoeae; strain ATCC 700719, replicates 1-3)
>2 h: Average MLMS t½ ([1]; murine liver microsomes, average of replicates) | MLMS t½ ([1]; murine liver microsomes, individual replicates)
0.338 µg/mL and 0.169 µg/mL: MIC (Neisseria gonorrhoeae; strain CDC-0185, replicates 1-3)
0.169 µg/mL and 0.085 µg/mL: MIC (Neisseria gonorrhoeae; strain ATCC 49226, replicates 1-3) | MIC (Neisseria gonorrhoeae; strain CDC-0167, replicates 1-3)
4.229 µg/mL: MIC (Escherichia coli; E. coli KLE701 (ΔtolC::tet), source data, individual replicates)
0.53 µg/mL: MIC (Neisseria gonorrhoeae; Neisseria gonorrhoeae, strain MMX 6921, CIP, by Micromyx) | MIC (Neisseria gonorrhoeae; Neisseria gonorrhoeae, strain MMX 6922, CIP, by Micromyx) | MIC (Neisseria gonorrhoeae; Neisseria gonorrhoeae, strain MMX 6983, CIP, by Micromyx) | MIC (Neisseria gonorrhoeae; Neisseria gonorrhoeae, strain MMX 6998, CIP, by Micromyx)
0.13 µg/mL: MIC (Neisseria gonorrhoeae; Neisseria gonorrhoeae, strain WHO G, PEN, TET) | MIC (Neisseria gonorrhoeae; Neisseria gonorrhoeae, strain WHO M, CIP, PEN, TET) | MIC (Neisseria gonorrhoeae; Neisseria gonorrhoeae, strain WHO O, PEN, TET) | MIC (Neisseria gonorrhoeae; Neisseria gonorrhoeae, strain WHO U, PEN, TET) | MIC (Neisseria gonorrhoeae; Neisseria gonorrhoeae, strain WHO W, CIP, PEN, TET)
0.042 µg/mL: MIC (Neisseria gonorrhoeae; strain ATCC 700825, replicates 1-3) | MIC (Neisseria gonorrhoeae; strain BAA-1846, replicates 1-3)

From PMC7979765, “trans-Translation inhibitors bind to a novel site on the ribosome and clear Neisseria gonorrhoeae in vivo” (Nature Communications, 2021)
